# From US6706664B1, “Benzoxazole compounds, process for the preparation thereof and herbicides” (UBE Industries, Ltd., priority 1999, dated 2004)
# What was measured:
# Parameters in all cases: key: 0: normal development; 1: Less damaged; 2: Slightly damaged; 3: Moderately damaged; 4: Severely damaged; 5: All killed
# barnyardgrass [1] = assay: Soil treatment test for upland field; assay type: in vivo, Echinochloa crusgalli; conditions: 500 g/ha, glass house 25° C., 3 weeks
# Description: (§1) (0: normal development, 1: Less damaged, 2: Slightly damaged, 3: Moderately damaged, 4: Severely damaged, 5: All killed).
# (§2) Wagner pots, each having an area of 1/5000 are, were packed with Ube soil (alluvial soil), and then each seed of corn, soybean, cotton, wheat, solgum, sugar beat, Large crabgrass, barnyardgrass, green foxtail, blackgrass, annual bluegrass, common lambsquartes, livid amaranth and velvetleaf were planted and covered with soil.
# (§3) Each wettable powder of the desired compounds (I) shown in Table 1 prepared in accordance with Example 2 was diluted with water containing a surfactant (0.05%) and uniformly sprayed on the surface of each soil so that an effective concentration of the compound (I) in each herbicide became 500 g/ha. These plants were controlled in a glass house at an average temperature of 25° C. for 3 weeks, and then herbicidal effects thereof were investigated.
# (§4) The herbicidal effects were evaluated according to the evaluation method described in the above (1).
# green foxtail = assay: Soil treatment test for upland field; assay type: in vivo, Setaria viridis; conditions: 500 g/ha, glass house 25° C., 3 weeks
# Description: as §1, §2, §3, §4
# blackgrass = assay: Soil treatment test for upland field; assay type: in vivo, Alopecurus aegualis; conditions: 500 g/ha, glass house 25° C., 3 weeks
# Description: as §1, §2, §3, §4
# barnyardgrass [2] = assay: Herbicidal test for paddy field; assay type: in vivo, Echinochloa crusgalli; conditions: paddy field pot, 500 g/ha dropwise at 1.5 leaf stage of barnyardgrass, 3 weeks, rank vs non-treated
# Procedure: (§5) Wagner pots, each having an area of 1/5000 are, were packed with Ube soil (alluvial soil) and planted with seeds or tubers of young rice plant, barnyardgrass, bulrush, flat sedge and monochoria. Then, the pots were filled with water to a depth of 3 cm.
# (§6) Each wettable powder of the desired compounds (I) shown in Table 1 prepared in accordance with Example 2 was diluted with water containing a surfactant (0.05%) and subjected to dropwise addition treatment by using pipet so that an effective concentration of the compound (I) in each herbicide became 500 g/ha at 1.5 leaf stage of barnyardgrass.
# (§7) These plants were controlled in a glass house at an average temperature of 25° C. for 3 weeks, and then herbicidal effects thereof were investigated.
# (§8) The herbicidal effects are evaluated according to the following 6 ranks as compared with non-treated district.
# as §1
# livid amaranth [3] = assay: Soil treatment test for upland field; assay type: in vivo, Amaranthus lividus; conditions: 500 g/ha, glass house 25° C., 3 weeks
# Description: as §1, §2, §3, §4
# monochoria = assay: Herbicidal test for paddy field; assay type: in vivo, Monochoria vaginalis; conditions: paddy field pot, 500 g/ha dropwise at 1.5 leaf stage of barnyardgrass, 3 weeks, rank vs non-treated
# Procedure: as §5, §6, §7, §8, §1
# young rice plant = assay: Herbicidal test for paddy field; assay type: in vivo; conditions: paddy field pot, 500 g/ha dropwise at 1.5 leaf stage of barnyardgrass, 3 weeks, rank vs non-treated
# Procedure: as §5, §6, §7, §8, §1
# sugar beat [4] = assay: Soil treatment test for upland field; assay type: in vivo; conditions: 500 g/ha, glass house 25° C., 3 weeks
# Description: as §1, §2, §3, §4
# wheat [5] = assay: Soil treatment test for upland field; assay type: in vivo; conditions: 500 g/ha, glass house 25° C., 3 weeks
# Description: as §1, §2, §3, §4
# soybean = assay: Soil treatment test for upland field; assay type: in vivo; conditions: 500 g/ha, glass house 25° C., 3 weeks
# Description: as §1, §2, §3, §4
# solgum [6] = assay: Soil treatment test for upland field; assay type: in vivo; conditions: 500 g/ha, glass house 25° C., 3 weeks
# Description: as §1, §2, §3, §4
# corn [7] = assay: Soil treatment test for upland field; assay type: in vivo; conditions: 500 g/ha, glass house 25° C., 3 weeks
# Description: as §1, §2, §3, §4
# cotton = assay: Soil treatment test for upland field; assay type: in vivo; conditions: 500 g/ha, glass house 25° C., 3 weeks
# Description: as §1, §2, §3, §4
# Large crabgrass = assay: Soil treatment test for upland field; assay type: in vivo, Digitaria adscendens; conditions: 500 g/ha, glass house 25° C., 3 weeks
# Description: as §1, §2, §3, §4
# bulrush = assay: Herbicidal test for paddy field; assay type: in vivo, Scrips juncoides; conditions: paddy field pot, 500 g/ha dropwise at 1.5 leaf stage of barnyardgrass, 3 weeks, rank vs non-treated
# Procedure: as §5, §6, §7, §8, §1
# annual bluegrass = assay: Soil treatment test for upland field; assay type: in vivo, Poa annua; conditions: 500 g/ha, glass house 25° C., 3 weeks
# Description: as §1, §2, §3, §4
# common lambsquartes [8] = assay: Soil treatment test for upland field; assay type: in vivo, Chenopodium album; conditions: 500 g/ha, glass house 25° C., 3 weeks
# Description: as §1, §2, §3, §4
# velvetleaf [9] = assay: Soil treatment test for upland field; assay type: in vivo, Abutilon theophrasti; conditions: 500 g/ha, glass house 25° C., 3 weeks
# Description: as §1, §2, §3, §4
# velvetleaf [10] = assay: Foliar spread test for upland field; assay type: in vivo, Abutilon theophrasti; conditions: foliar spray 500 ppm, 3 weeks, rank vs non-treated
# Description: as §1
# (§9) Wagner pots, each having an area of 1/5000 are, were packed with volcanic ash soil and then each seed of corn, soybean, cotton, wheat, solgum, sugar beat, Large crabgrass, barnyardgrass, green foxtail, blackgrass, annual bluegrass, common lambsquartes, livid amaranth, velvetleaf and morning glory was planted, covered with soil and grown in a glass house at an average temperature of […] for about 2 weeks.
# (§10) Each wettable powder of the desired compounds (I) shown in Table 1 prepared in accordance with Example 2 was diluted to 500 ppm with water containing a surfactant (0.5%) and then uniformly sprayed on the above respective plants.
# (§11) After these plants were controlled in a glass house at an average temperature of 25° C. for 3 weeks, the herbicidal effects thereof were investigated.
# as §4
# common lambsquartes [11] = assay: Foliar spread test for upland field; assay type: in vivo, Chenopodium album; conditions: foliar spray 500 ppm, 3 weeks, rank vs non-treated
# Description: as §1, §9, §10, §11, §4
# livid amaranth [12] = assay: Foliar spread test for upland field; assay type: in vivo, Amaranthus lividus; conditions: foliar spray 500 ppm, 3 weeks, rank vs non-treated
# Description: as §1, §9, §10, §11, §4
# sugar beat [13] = assay: Foliar spread test for upland field; assay type: in vivo; conditions: foliar spray 500 ppm, 3 weeks, rank vs non-treated
# Description: as §1, §9, §10, §11, §4
# wheat [14] = assay: Foliar spread test for upland field; assay type: in vivo; conditions: foliar spray 500 ppm, 3 weeks, rank vs non-treated
# Description: as §1, §9, §10, §11, §4
# solgum [15] = assay: Foliar spread test for upland field; assay type: in vivo; conditions: foliar spray 500 ppm, 3 weeks, rank vs non-treated
# Description: as §1, §9, §10, §11, §4
# corn [16] = assay: Foliar spread test for upland field; assay type: in vivo; conditions: foliar spray 500 ppm, 3 weeks, rank vs non-treated
# Description: as §1, §9, §10, §11, §4
Compound,Effects Barnyardgrass (barnyardgrass [1]),Effects Green foxtail (green foxtail),Effect Barnyardgrass (barnyardgrass [2]),Effects Livid amaranth (livid amaranth [3]),Effect Monochoria (monochoria),Effect Young rice plant (young rice plant),Effects Sugar beat (sugar beat [4]),Effects Wheat (wheat [5]),Effects Soybean (soybean),Effects Solgum (solgum [6]),Effects Corn (corn [7]),Effects Cotton (cotton),Effects Large crabgrass (Large crabgrass),Effect Bulrush (bulrush),Effects Annual bluegrass (annual bluegrass),Effects Common lambsquarters (common lambsquartes [8]),Effects Velvetleaf (velvetleaf [9]),Effects Velvetleaf (velvetleaf [10]),Effects Common lambsquarters (common lambsquartes [11]),Effects Livid amaranth (livid amaranth [12]),further results
CCC(Oc1ccc(F)c(C(F)(F)F)c1)c1nc2ccc(Cl)cc2o1 (stereo not shown) [Compound 9],4,5,3,5,4,0,2,0,0,0,0,0,5,3,4,3,–,–,–,–,Effects Blackgrass (blackgrass): 3
CCC(Oc1ccc(F)c(C(F)(F)F)c1)c1nc2ccc(F)cc2o1 (stereo not shown) [Compound 27],1,4,1,5,5,0,1,0,0,0,0,0,4,4,3,3,1,–,–,–,–
CCCC(Oc1ccc(F)c(C(F)(F)F)c1)c1nc2cc(S(C)(=O)=O)ccc2o1 (stereo not shown) [Compound 217],–,5,–,5,4,1,5,0,0,0,0,1,5,2,4,5,5,–,–,–,Effects Blackgrass (blackgrass): 2
CCC(Oc1cccc(C#N)c1)c1nc2cc(Cl)ccc2o1 (stereo not shown) [Compound 353],–,–,3,–,5,0,–,–,–,–,–,–,–,4,–,–,–,–,–,–,–
CCCCC(Oc1ccc(F)c(C(F)(F)F)c1)c1nc2cc(Cl)ccc2o1 (stereo not shown) [Compound 476],–,4,–,5,–,–,3,0,0,0,0,0,3,–,4,3,2,2,5,5,Effects Sugar beat (sugar beat [13]): 5; Effects Wheat (wheat [14]): 1; Effects Solgum (solgum [15]): 0; Effects Corn (corn [16]): 1
CCCC(Oc1cccc(C(F)(F)F)c1)c1nc2cc(S(C)(=O)=O)c(C)cc2o1 (stereo not shown) [Compound 489],–,4,–,5,–,–,5,0,0,0,1,0,2,–,5,4,3,3,5,5,Effects Sugar beat (sugar beat [13]): 5; Effects Wheat (wheat [14]): 1; Effects Solgum (solgum [15]): 1; Effects Corn (corn [16]): 1
CCC(Oc1cccc(C(F)(F)F)c1)c1nc2cc(S(C)(=O)=O)c(C)cc2o1 (stereo not shown) [Compound 490],–,–,–,–,–,–,–,–,–,–,–,–,–,–,–,–,–,4,5,4,Effects Sugar beat (sugar beat [13]): 4; Effects Wheat (wheat [14]): 1; Effects Solgum (solgum [15]): 1; Effects Corn (corn [16]): 1
CCCC(Oc1cccc(C#N)c1)c1nc2cc(F)c(Cl)cc2o1 (stereo not shown) [Compound 501],–,–,3,–,3,1,–,–,–,–,–,–,–,–,–,–,–,–,–,–,–
CCC(Oc1ccc(F)c(C(F)(F)F)c1)c1nc2cc(C#N)c(Cl)cc2o1 (stereo not shown) [Compound 517],3,4,3,5,3,2,5,0,0,0,0,0,3,3,–,3,3,–,–,–,–
